Measurements: patent US9616066B2, “Therapy for constipation” (priority 2012, dated 2017)

Assays:
[1] = system: constipation related to dehydration, post-gastroenteritis; assay: Case Example 4: orlistat for constipation related to post-infection and dehydration; assay type: in vivo, human
Description: A person travelled to Mexico and while there developed acute gastroenteritis. The patient was of average weight (not overweight). They began experiencing vomiting and diarrhea while there. They became dehydrated and eventually was transferred to their home in Canada. The virus had cleared one day after arriving back in Canada. They began eating and drinking but had developed constipation related to post-infection and dehydration. They were given orlistat (120 mg orally once daily with food) by their doctor for one week and this resolved their constipation within 24 hours. […] The improvement was such that after seven days that when they stopped the medication (orlistat), they were able to return to their normal diet.

[2] = system: paralytic bowel, chronic constipation; assay: Case Example 5: orlistat for paralytic bowel after spinal cord transection; assay type: in vivo, human; settings: orlistat 120 mg three times a day with food
Excerpt: A person of average weight (not overweight) suffered a thoracic spinal injury with transection of the spinal cord resulting in complete paralysis below the third thoracic vertebrae. They went on to develop full paralysis of their muscles below T-3 including the skeletal muscles and smooth muscles of the gut. They developed a paralytic bowel contributing to chronic constipation with overflow and diarrhea. They required regular manual disempaction and Fleet enemas to manage their chronic constipation. The patient was given orlistat (120 mg one pill three times a day with food) by their doctor.

[3] = system: chronic constipation after bowel resection/colostomy; assay: Case Example 7: orlistat for constipation after partial bowel resection with colostomy; assay type: in vivo, human
Excerpt: person suffering from bowel cancer was given a partial bowel resection with a colostomy and bag. They complained that since their bowel surgery they suffered chronic constipation and hard stools. […] It would sometimes be so hard it could injure and cause bleeding to the ostomy site.

[4] = system: constipation related to deconditioning/bedridden; assay: Case Example 8: orlistat for constipation related to being bedridden; assay type: in vivo, human
Description: His stools and bowel function gradually became more regular allowing for a reduction of dose of the orlistat (to one 120 mg oral pill twice per day with food) as maintenance.

[5] = system: fibromyalgia, irritable bowel syndrome, chronic abdominal pain; assay: Case Example 9: orlistat in fibromyalgia patient with irritable bowel syndrome; assay type: in vivo, human
Excerpt: This case involves a person with a 15 year history of fibromyalgia. The person reported chronic pain involving the neck, lower back, migraine headaches, abdominal bloating, and constipation with occasional diarrhea. They had been diagnosed with fibromyalgia about 10 years prior, and had chronic abdominal pain, bloating and a formal diagnosis of irritable bowel syndrome. […] Serology, abdominal x-rays, ultrasound of the abdomen and pelvis, were normal. […] There were no masses or any signs of acute surgical abdomen. They were taking Lyrica™ 75 mg twice a day, Flexeril™ 10 mg twice a day as needed, Percocet™ 2 twice a day as needed, and Celebrex™ 200 mg once a day. They were given orlistat (120 mg, twice a day as needed to take with food), and they noted that their constipation resolved, their bloating resolved, their occasional diarrhea resolved, and their abdominal pain resolved.

[6] = system: irritable bowel syndrome, chronic abdominal pain; assay: Case Example 10: orlistat in person with irritable bowel syndrome; assay type: in vivo, human; settings: over 4 to 6 weeks
Excerpt: This case involves a non-overweight person with a history of irritable bowel syndrome. The person reported chronic abdominal pain and bloating, minor occasional constipation, minor occasional diarrhea, and lower back pain for the past five years. They were otherwise well. They had 2 colonoscopies, and an ultrasound of the abdomen and pelvis, all of which were normal. They were also taking an oral dose of B12. They were on other medications as well. […] There was no rebound or rigidity. They had no enlargement of any organs. They had tenderness globally around their abdomen, tightness of the iliopsoas bilaterally and oblique muscles. Their bowels were tender, and they were chronically uncomfortable and in pain. They were treated with orlistat (120 mg, once or twice a day as needed with food). […] They felt generally better, and was able to stop taking vitamin B12 because the absorption of […] B12 improved with their improved bowel function. Thus, orlistat was useful to treat IBD.

[7] = system: irritable bowel syndrome and heartburn; assay: Case Example 11: orlistat in person with irritable bowel syndrome and heartburn; assay type: in vivo, human; settings: orlistat 120 mg, one per day on average
Excerpt: This example relates to a person with a 20 year history of irritable bowel syndrome and heartburn. The person reported chronic abdominal pain with bloating, occasional constipation or diarrhea, and epigastric discomfort for over 20 years. They had four colonoscopies over that period of time, and 2 endoscopies of the stomach. […] They also had ultrasounds of the abdomen and pelvis which were normal. They had 2 chest x-rays and an MRI of the abdomen, each of which were normal. They were taking Losec™ for their heartburn which was controlled. They were also taking low dose Atenolol™ for their blood pressure as they had developed some minor hypertension. They were otherwise well. […] There were no masses, rebound or rigidity. There were no organs that were tender or enlarged. They complained of persistent heartburn despite being on Losec™ and abdominal pain. They were treated with orlistat (120 mg, twice a day each with a meal to be reduced or increased as required up to three per day). They reported that they only required one per day on average and occasionally a second tablet. […] They became more flexible in their abdomen and lower back. They were more comfortable in their walking. Thus, orlistat was useful to treat IBD.

[8] = system: opiate-related constipation
[9] = system: non-opiate medication-related constipation; assay: Case Example 2: cetilistat for constipation related to amitriptyline (non-opiate medication); assay type: in vivo, human
Description: A person with fibromyalgia being treated with the tricyclic antidepressant, amitriptyline, suffered from a global pain disorder requiring pain management. They were of average weight, not over-weight. They were treated with amitriptyline that is a known therapeutic agent for mild to moderate fibromyalgia. This tricyclic antidepressant is also known for causing dry mouth, blurry vision and constipation.

[10] = system: lazy bowel and age-related constipation; assay: Case Example 3: cetilistat for constipation in person (non-opiate medications, dehydration, lazy bowel); assay type: in vivo, human; settings: cetilistat 60 mg twice daily
Excerpt: Person living in a nursing home with mild dementia complained of painful bowel movements causing an anal fissure with bleeding in their rectum. The cause of their constipation was deemed to be due to a combination of non-opiate medications, dehydration, and a lazy bowel. The patient also complained of abdominal distention and some intermittent abdominal discomfort. The patient was not overweight. […] They had abdominal pain with conventional bowel stimulants. […] The cetilistat resolved the constipation in an acute case and allowed for long-term recovery from a constipation-related complication. Further, it was effective in the treatment of lazy bowel and age-related constipation.

[11] = system: constipation related to menstrual cycle; assay: Case Example 6: cetilistat for constipation related to menstrual cycle; assay type: in vivo, human; settings: cetilistat 60 mg oral once a day with food, as needed
Excerpt: This is a case of a person who complained of recurring constipation related to their menstrual cycle. They noticed that a few days before the onset of their menstrual cycle and for the week of their menstrual cycle they develop constipation that aggravates their bloating and abdominal pain. They are not overweight. They have tried over-the-counter laxatives and tried some standard prescription laxatives that caused them to feel more bloated. […] Their doctor gave them a prescription of cetilistat (one 60 mg oral pill once a day with food) to be taken one to three days before the onset of their menstruation. In the fourth week of their period, they noticed normalization of their bowel movement and required to take the cetilistat only as needed. Often they only need to take it three times during their menstrual cycle. […] Typically, they required the cetilistat 3-7 days per cycle. […] Further, the cetilistat may be used as needed as a medication for constipation.

[12] = orlistat 120 mg twice a day as needed with food
[13] = orlistat 120 mg once or twice a day

SMILES: CCCCCCCCCCC[C@@H](C[C@@H]1OC(=O)[C@H]1CCCCCC)OC(=O)[C@H](CC(C)C)NC=O [orlistat]
- bowel movements after cessation ([1]; after stopping orlistat at seven days): continue to be normal
- bowel movements on treatment ([1]; orlistat 120 mg once daily): normal and regular
- time to resolution of constipation ([1]; orlistat 120 mg orally once daily with food for one week): ≤ 24 h
- bowel formation [2]: long-term improvement in bowel formation
- bowel movements [2]: soft and allowing for more regular, daily movements
- need for enemas and manual disempaction [2]: significant reduction of therapeutic enemas and manual disempaction
- abdominal pain ([3]; orlistat 120 mg once daily): no longer had abdominal pain
- bloating ([3]; orlistat 120 mg once daily): greatly improved
- stool consistency ([3]; orlistat 120 mg once daily): softened their stool
- average bowel movement frequency ([3]; orlistat 120 mg orally once daily with food): once a day
- stool and bowel movements ([4]; orlistat 120 mg once a day increased to three times per day with food, then twice per day as maintenance): softening of their stool, and the formation of regular bowel movements daily
- need for Fleet enemas and disempaction ([4]; orlistat, maintenance 120 mg twice per day): cessation of the Fleet enemas and the disempaction
- long-term outcome ([5]; combined medication for over two years): sustained good results
- abdominal pain [5, 12]: resolved
- bloating [5, 12]: resolved
- occasional diarrhea [5, 12]: resolved
- overall fibromyalgia [5, 12]: improvement in their overall fibromyalgia
- constipation ([5]; orlistat 120 mg twice a day as needed with food, with Lyrica, Flexeril, Percocet, Celebrex): resolved
- bloating ([6]; orlistat 120 mg once or twice a day as needed with food): reduced bloating
- abdominal pain [6, 13]: resolution of their abdominal pain
- diarrhea [6, 13]: no episodes of diarrhea
- muscles of abdomen and lower back [6, 13]: relaxation of the muscles of their abdomen and lower back
- straining with bowel movements [6, 13]: less straining with bowel movements
- bloating [7]: great improvement of their bloating
- abdominal pain and heartburn ([7]; over 4 to 6 weeks): great improvement of their abdominal pain and heartburn
- time to noticed improvement of constipation ([8]; orlistat 120 mg BID orally with food, patient on MS Contin 60 mg BID): ≤ 24 h
- bowel movements within one week ([8]; orlistat 120 mg BID orally with food, within one week): daily bowel movements
- bowel movements over one year of treatment ([8]; orlistat 120 mg BID, one year): good well-formed bowel movements most days
- side effects reported ([8]; orlistat 120 mg BID, one year): no major side effects

SMILES: CCCCCCCCCCCCCCCCOc1nc2ccc(C)cc2c(=O)o1 [cetilistat]
- side effects reported ([9]; cetilistat 60 mg once per day, one year): no major side effects
- time to bowel movement ([9]; cetilistat 60 mg orally once per day with food, patient on amitriptyline): ≤ 24 h
- bowel movements on continued daily treatment ([9]; cetilistat one pill per day): regular bowel movements daily
- outcome after a year of amitriptyline and cetilistat ([9]; one year): good success with treatment of fibromyalgia and daily bowel movements
- abdominal bloating and abdominal pain [10]: resolved
- bowel movement regularity [10]: regular bowel movements daily
- quality of the bowel movement [10]: painless and soft
- anal fissure and rectal bleeding ([10]; over two weeks): the anal fissure had healed and the bleeding had stopped
- relief of constipation on days of use [11]: good relief of their constipation with regular, soft bowel movements
